Reference: patent US7498352B2, “TGF-β superfamily production/secretion promoter” (Takeda Pharmaceutical Company Limited, priority 2001, dated 2009)

How the values were obtained:
GDF-15 = GDF-15 expression in dorsal root ganglion of STZ diabetic neuropathy rats, real time quantitative RT-PCR; assay type: in vivo, rat; conditions: STZ (70 mg/kg) male SD rats, 10 mg/kg body weight/day orally for 4 months
Procedure: Streptozotocin (STZ) was administered to 6-week-old male SD rats (n=5-8) at 70 mg/kg to prepare diabetic neuropathy models. Starting from 4 months of the STZ administration, compound (5) was orally administered to the rats for 4 months at the dose of 10 mg/kg body weight/day. Then, dorsal root ganglion of the rats was removed, treated with ISOGEN solution (NIPPON GENE CO., LTD.) and the total RNA was extracted.
Using the obtained total RNA, a primer depicted in 5′-ACTGCATGCCAACCAGAGC-3′ (SEQ ID:1) and a primer depicted in 5′-[…]-3′ (SEQ ID:2), which were prepared based on the reported mRNA sequence of GDF-15, and a fluorescent probe having a GDF-15 specific sequence, […] (SEQ ID:3), and acidic ribosomal phosphoprotein PO as an endogenous control, a real time quantitative RT-PCR (Applied Biosystems) was performed.

left sciatic nerve = experiment: Maximum distance of nerve extension (evoked potential) after sciatic nerve transection in STZ diabetic neuropathy rats; assay type: in vivo, rat; conditions: left sciatic nerve transected, 10 mg/kg body weight/day orally for 5 weeks
Procedure: Streptozotocin (STZ, 70 mg/kg) was intravenously injected to 6-week-old male SD rats (n=9-10) to prepare diabetic neuropathy models. After 2 weeks of the STZ administration, the left sciatic nerve of the rats was transected under anesthesia, and compound (5) was orally administered at the dose of 10 mg/kg body weight/day for 5 weeks. After the completion of the administration, the rats were anesthetized, and the distance (maximum distance of extension) from the nerve transection site to the detectable site was measured for evoked potential using a device detecting evoked potential [Neuropack 2, manufactured by NIHON KOHDEN CORPORATION]. As a result, the maximum extension of the compound (5) administration group was extended by 2.4 times as compared to that of the compound (5) non-administration group (control group).

GDNF = GDNF content of sciatic nerve of KKAy mice fed compound, measured by ELISA; assay type: in vivo, mouse; conditions: 17 week-old female KKAy mice, powder feed containing 0.01% of compound for 7 weeks
Procedure: 17 week-old female KKAy mice (n=10-12) were maintained for 7 weeks on a powder feed (CRF-1, manufactured by Oriental Yeast Co., Ltd.) containing 0.01% of compound (5). Then, sciatic nerve of the mouse was taken and stored at −80° C., until use for the measurement (ca. 10 months).
The stored sciatic nerve was ultrasonicated in a 20-fold volume of a homogenized buffer (0.1 M tris hydrochloride buffer containing 1M sodium chloride, 2% BSA, 2 mM EDTA, 80 trypsin unit/L of aprotinin, 0.02% sodium azide, pH 7.6) and insoluble materials were separated by centrifugation (15,000 rpm, 30 min). The GDNF content of the supernatant was measured by the following ELISA method.
Thus, an anti-hGDNF goat antibody (100 μg/ml) (Genzyme-Techne) was distributed in 10-μl portions in the wells of 96-well round bottom plates and antibody adsorption was allowed to proceed by 2 hours incubation at room temperature. After removing the antibody, each well was washed three times with a washing solution. […] After washing, 30 μl of 4-methylumbelliferyl-β-D-galactoside (produced by Sigma) (10 μg/ml) was added to the substrate, the reaction was allowed to proceed at room temperature for 4 hours and then terminated by addition of 130 μl of 0.1 M glycine-sodium hydroxide buffer (pH 10.3), and the fluorescent intensity of the 4-methylumbelliferone produced was determined (Ex: 360 nm; Em: 450 nm). […]

Cc1ccccc1OCCCc1oc(-n2ccnc2C)nc1-c1ccc(Cl)cc1 [compound (5), 4-(4-chlorophenyl)-2-(2-methyl-1-imidazolyl)-5-[3-(2-methylphenoxy)propyl]oxazole]
increase of GDF-15 expression level as compared to non-administration group (control group) (GDF-15): 135% | maximum extension (distance from nerve transection site to site with detectable evoked potential) relative to control group (left sciatic nerve; STZ (70 mg/kg i.v.) male SD rats): 2.4 times | effect of neuroneogenesis and of restoring nerve function (left sciatic nerve; STZ male SD rats): an effect of neuroneogenesis and an effect of restoring nerve function were observed | increase of GDNF content in the sciatic nerve as compared to the control group (GDNF): 87.9%
